Experiment: Theophylline release experiment in pH 7 phosphate buffer
Format: physicochemical
Settings: FIG. 24
Experimental: First, the porous particles containing theophylline of Application Examples of 4-1 to 4-4 were dispersed in a phosphate buffer solution of pH 7 at 200 mg/100 mL.
Next, the solution was collected over time, filtered by a filter, and thereafter analyzed by high-performance liquid chromatography, and the concentration of theophylline in the solution was measured.

For `Cn1c(=O)c2[nH]cnc2n(C)c1=O` [theophylline alone, theophylline], the “Theophylline release / dissolution behaviour” value was “whole amount was dissolved instantaneously”.

— US20170319483A1, “METHOD FOR PRODUCING POROUS PARTICLE” (National Institute for Materials Science, priority 2014, published 2017)
